According to ChEMBL document CHEMBL5233229, “Recent advances in the development of ubiquitin-specific-processing protease 7 (USP7) inhibitors” (Eur J Med Chem, 2020):
“And” between values parts separate entries of the source, which are not always exact repeats. Equal values may be shown once.

Biological target: T1, Ubiquitin carboxyl-terminal hydrolase 7 (Homo sapiens, UniProt Q93009)
Assay: Inhibition of human USP7 using Ub-AMC as substrate

T1 sequence (Q93009 whole entry): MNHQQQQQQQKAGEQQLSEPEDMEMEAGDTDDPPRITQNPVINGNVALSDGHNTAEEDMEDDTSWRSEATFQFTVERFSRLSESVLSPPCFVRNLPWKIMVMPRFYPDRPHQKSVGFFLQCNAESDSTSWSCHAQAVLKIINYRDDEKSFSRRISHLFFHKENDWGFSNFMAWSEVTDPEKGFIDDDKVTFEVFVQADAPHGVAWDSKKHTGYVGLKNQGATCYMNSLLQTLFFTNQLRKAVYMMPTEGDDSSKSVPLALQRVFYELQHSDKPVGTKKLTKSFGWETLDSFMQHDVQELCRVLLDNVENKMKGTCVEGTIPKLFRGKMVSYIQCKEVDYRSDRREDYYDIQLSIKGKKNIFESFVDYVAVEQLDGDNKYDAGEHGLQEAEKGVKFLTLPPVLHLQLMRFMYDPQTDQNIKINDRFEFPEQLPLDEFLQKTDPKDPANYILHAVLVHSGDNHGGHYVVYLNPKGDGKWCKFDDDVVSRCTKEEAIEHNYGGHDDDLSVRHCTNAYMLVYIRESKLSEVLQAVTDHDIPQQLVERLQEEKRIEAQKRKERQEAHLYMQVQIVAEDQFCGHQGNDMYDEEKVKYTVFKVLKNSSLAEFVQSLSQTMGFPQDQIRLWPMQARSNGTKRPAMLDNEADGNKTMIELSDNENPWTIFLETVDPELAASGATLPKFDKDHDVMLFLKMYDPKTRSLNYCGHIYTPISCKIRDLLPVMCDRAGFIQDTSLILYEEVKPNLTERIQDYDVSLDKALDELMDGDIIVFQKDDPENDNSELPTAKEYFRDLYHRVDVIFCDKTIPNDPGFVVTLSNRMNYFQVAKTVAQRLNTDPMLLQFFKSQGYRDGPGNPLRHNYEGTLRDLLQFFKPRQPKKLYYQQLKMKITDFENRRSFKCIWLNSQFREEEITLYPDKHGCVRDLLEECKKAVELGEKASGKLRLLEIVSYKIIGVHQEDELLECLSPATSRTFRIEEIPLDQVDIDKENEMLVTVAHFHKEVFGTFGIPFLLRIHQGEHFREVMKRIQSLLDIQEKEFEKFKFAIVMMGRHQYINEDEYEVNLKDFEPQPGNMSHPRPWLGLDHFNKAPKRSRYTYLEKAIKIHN

Structure (SMILES) | IC50
O=C(Cc1ccccc1)N1CCC(O)(Cn2cnc3cc(Cl)ccc3c2=O)CC1 | > 100000 nM
CC(CC(=O)N1CCC(O)(Cn2cnc3cc(NC(=O)CCN4CCCCC4)ccc3c2=O)CC1)c1ccccc1 (stereo unspecified) | 350 nM
CC(CC(=O)N1CCC(O)(Cn2cnc3cc(NC(=O)CCN4CCN(C)CC4)ccc3c2=O)CC1)c1ccccc1 (stereo unspecified) | 560 nM
C[C@@H](CC(=O)N1CCC(O)(Cn2cnc3cc(NC(=O)CCN4CCN(C)CC4)ccc3c2=O)CC1)c1ccccc1 | 7180 nM and 11000 nM
CC(CC(=O)N1CCC(O)(Cn2cnc3cc(Cl)ccc3c2=O)CC1)c1ccccc1 (stereo unspecified) | 1300 nM
C[C@H](CC(=O)N1CCC(O)(Cn2cnc3cc(Cl)ccc3c2=O)CC1)c1ccccc1 | 420 nM
C[C@H](CC(=O)N1CCC(O)(Cn2cnc3cc(NC(=O)CCN4CCOCC4)ccc3c2=O)CC1)c1ccccc1 | 480 nM
O=c1c2ccc(Cl)cc2ncn1CC1(O)CCN(CCCc2ccccc2)CC1 | > 100000 nM
O=C(CCc1ccccc1)N1CCC(O)(Cn2cnc3cc(Cl)ccc3c2=O)C1 (stereo unspecified) | > 100000 nM
O=C(CCc1ccccc1)N1CCC(O)(Cn2cnc3cc(Cl)ccc3c2=O)CC1 | 12000 nM
C[C@H](CC(=O)N1CCC(O)(Cn2cnc3cc(NC(=O)CCN(C)C)ccc3c2=O)CC1)c1ccccc1 | 130 nM
CC(=O)N1CCC(O)(Cn2cnc3cc(Cl)ccc3c2=O)CC1 | > 100000 nM
CC(CC(=O)N1CCC(O)(Cn2cnc3cc(NC(=O)CCn4ccnc4)ccc3c2=O)CC1)c1ccccc1 (stereo unspecified) | 240 nM
C[C@@H](CC(=O)N1CCC(O)(Cn2cnc3cc(Cl)ccc3c2=O)CC1)c1ccccc1 | 40000 nM
O=C(CCc1ccccc1)N1CCC(Cn2cnc3cc(Cl)ccc3c2=O)CC1 | > 100000 nM
C[C@H](CC(=O)N1CCC(O)(Cn2cnc3cc(NC(=O)CCN4CCN(C)CC4)ccc3c2=O)CC1)c1ccccc1 | 190 nM
CC(C)C(CC(=O)N1CCC(O)(Cn2cnc3cc(NC(=O)CCN4CCN(C)CC4)ccc3c2=O)CC1)c1ccccc1 (stereo unspecified) | 270 nM
N#CC1(Cn2cnc3cc(Cl)ccc3c2=O)CCN(C(=O)CCc2ccccc2)CC1 | > 100000 nM

Biological target: T1, Ubiquitin carboxyl-terminal hydrolase 7
Assay: Inhibition of human USP7 using human N-terminal GST-tagged UBA52 as substrate preincubated for 10 mins followed by substrate addition measured after 45 mins by coomassie brilliant blue staining-based SDS-PAGE analysis

Structure (SMILES) | IC50 [nM]
C[C@H]1[C@H](C)CC[C@]2(C(=O)O)CC[C@]3(C)C(=CC[C@@H]4[C@@]5(C)C[C@@H](O)[C@H](O)C(C)(C)[C@@H]5CC[C@]43C)[C@H]12 [COROSOLIC ACID] | 22700
COC(=O)[C@]12CC[C@@H](C)[C@H](C)[C@H]1C1=CC[C@@H]3[C@@]4(C)CC[C@H](O)C(C)(C)[C@@H]4CC[C@@]3(C)[C@]1(C)CC2 [METHYL URSOLATE] | > 50000
CC1(C)CC[C@]2(C(=O)O)CC[C@]3(C)C(=CC[C@@H]4[C@@]5(C)CC[C@H](O)C(C)(C)[C@@H]5CC[C@]43C)[C@@H]2C1 [OLEANOLIC_ACID] | 12500
CC1(C)CC[C@]2(C(=O)O)[C@H](O)C[C@]3(C)C(=CC[C@@H]4[C@@]5(C)C[C@H](O)[C@H](O)[C@@](C)(CO)[C@@H]5CC[C@]43C)[C@@H]2C1 | > 50000
C=C(C)[C@@H]1CC[C@]2(C(=O)O)CC[C@]3(C)[C@H](CC[C@@H]4[C@@]5(C)CC[C@H](O)C(C)(C)[C@@H]5CC[C@]43C)[C@H]2C1 | 33300

Biological target: T1, Ubiquitin carboxyl-terminal hydrolase 7
Assay: Inhibition of human USP7 using Ub-EKL as substrate by SDS-PAGE assay

Structure (SMILES) | EC50 [nM]
COCCNC1CS(=O)(=O)c2cc(NC(=O)c3cc([N+](=O)[O-])c(Sc4c(Cl)cncc4Cl)s3)ccc21 (stereo unspecified) | 790
CC1CS(=N)(=O)c2cc(NC(=O)c3cc([N+](=O)[O-])c(Sc4c(Cl)cncc4Cl)s3)ccc21 (stereo unspecified) | 470
N#Cc1cc(C(=O)Nc2ccc3c(c2)S(=O)(=O)C=C3)sc1Sc1c(Cl)cncc1Cl | 590
O=C(NC1CCS(=O)(=O)c2ccccc21)c1cc([N+](=O)[O-])c(Sc2c(Cl)cncc2Cl)s1 (stereo unspecified) | 810
CS(=O)(=O)c1cccc(NC(=O)c2cc([N+](=O)[O-])c(Sc3c(Cl)cncc3Cl)s2)c1 | 510
CCS(=O)(=O)c1cccc(NC(=O)c2cc([N+](=O)[O-])c(Sc3c(Cl)cncc3Cl)s2)c1 | 420
O=C(Nc1cccc(S(=O)(=O)CC2CC2)c1)c1cc([N+](=O)[O-])c(Sc2c(Cl)cncc2Cl)s1 | 390
CS(=N)(=O)c1cccc(NC(=O)c2cc([N+](=O)[O-])c(Sc3c(Cl)cncc3Cl)s2)c1 (stereo unspecified) | 2000
CN(C)CCNC1CS(=O)(=O)c2cc(NC(=O)c3cc([N+](=O)[O-])c(Sc4c(Cl)cncc4Cl)s3)ccc21 (stereo unspecified) | 220
O=C(Nc1cccc(S(=O)(=O)C2CC2)c1)c1cc([N+](=O)[O-])c(Sc2c(Cl)cncc2Cl)s1 | 560
O=C(Nc1ccc2c(c1)S(=O)(=O)C=C2)c1cc([N+](=O)[O-])c(Sc2c(Cl)cncc2Cl)s1 | 100
O=C(c1cc([N+](=O)[O-])c(Sc2c(Cl)cncc2Cl)s1)N1CCS(=O)(=O)CC1 | 4300
CS(=O)(=O)c1ccccc1NC(=O)c1cc([N+](=O)[O-])c(Sc2c(Cl)cncc2Cl)s1 | 850
CC1=CS(=O)(=O)c2cc(NC(=O)c3cc([N+](=O)[O-])c(Sc4c(Cl)cncc4Cl)s3)ccc21 | 170
CN(C)CCOc1ccc(NC(=O)c2cc([N+](=O)[O-])c(Sc3c(Cl)cncc3Cl)s2)cc1 | 500
O=C(NC1CCS(=O)(=O)CC1)c1cc([N+](=O)[O-])c(Sc2c(Cl)cncc2Cl)s1 | 2100
CC1CS(=O)(=O)c2cc(NC(=O)c3cc([N+](=O)[O-])c(Sc4c(Cl)cncc4Cl)s3)ccc21 (stereo unspecified) | 75
O=C(Nc1ccc2c(c1)S(=O)(=O)CC2)c1cc([N+](=O)[O-])c(Sc2c(Cl)cncc2Cl)s1 | 130
CS(=O)(=O)c1ccc(NC(=O)c2cc([N+](=O)[O-])c(Sc3c(Cl)cncc3Cl)s2)cc1 | 6800
O=C(NC1CCS(=O)(=O)C2COCCC12)c1cc([N+](=O)[O-])c(Sc2c(Cl)cncc2Cl)s1 (stereo unspecified) | 4800
CS(=O)(=O)Nc1cccc(NC(=O)c2cc([N+](=O)[O-])c(Sc3c(Cl)cncc3Cl)s2)c1 | 640

Biological target: T2, Ubiquitin carboxyl-terminal hydrolase 47 (Homo sapiens, UniProt Q96K76)
T2 sequence (Q96K76 whole entry): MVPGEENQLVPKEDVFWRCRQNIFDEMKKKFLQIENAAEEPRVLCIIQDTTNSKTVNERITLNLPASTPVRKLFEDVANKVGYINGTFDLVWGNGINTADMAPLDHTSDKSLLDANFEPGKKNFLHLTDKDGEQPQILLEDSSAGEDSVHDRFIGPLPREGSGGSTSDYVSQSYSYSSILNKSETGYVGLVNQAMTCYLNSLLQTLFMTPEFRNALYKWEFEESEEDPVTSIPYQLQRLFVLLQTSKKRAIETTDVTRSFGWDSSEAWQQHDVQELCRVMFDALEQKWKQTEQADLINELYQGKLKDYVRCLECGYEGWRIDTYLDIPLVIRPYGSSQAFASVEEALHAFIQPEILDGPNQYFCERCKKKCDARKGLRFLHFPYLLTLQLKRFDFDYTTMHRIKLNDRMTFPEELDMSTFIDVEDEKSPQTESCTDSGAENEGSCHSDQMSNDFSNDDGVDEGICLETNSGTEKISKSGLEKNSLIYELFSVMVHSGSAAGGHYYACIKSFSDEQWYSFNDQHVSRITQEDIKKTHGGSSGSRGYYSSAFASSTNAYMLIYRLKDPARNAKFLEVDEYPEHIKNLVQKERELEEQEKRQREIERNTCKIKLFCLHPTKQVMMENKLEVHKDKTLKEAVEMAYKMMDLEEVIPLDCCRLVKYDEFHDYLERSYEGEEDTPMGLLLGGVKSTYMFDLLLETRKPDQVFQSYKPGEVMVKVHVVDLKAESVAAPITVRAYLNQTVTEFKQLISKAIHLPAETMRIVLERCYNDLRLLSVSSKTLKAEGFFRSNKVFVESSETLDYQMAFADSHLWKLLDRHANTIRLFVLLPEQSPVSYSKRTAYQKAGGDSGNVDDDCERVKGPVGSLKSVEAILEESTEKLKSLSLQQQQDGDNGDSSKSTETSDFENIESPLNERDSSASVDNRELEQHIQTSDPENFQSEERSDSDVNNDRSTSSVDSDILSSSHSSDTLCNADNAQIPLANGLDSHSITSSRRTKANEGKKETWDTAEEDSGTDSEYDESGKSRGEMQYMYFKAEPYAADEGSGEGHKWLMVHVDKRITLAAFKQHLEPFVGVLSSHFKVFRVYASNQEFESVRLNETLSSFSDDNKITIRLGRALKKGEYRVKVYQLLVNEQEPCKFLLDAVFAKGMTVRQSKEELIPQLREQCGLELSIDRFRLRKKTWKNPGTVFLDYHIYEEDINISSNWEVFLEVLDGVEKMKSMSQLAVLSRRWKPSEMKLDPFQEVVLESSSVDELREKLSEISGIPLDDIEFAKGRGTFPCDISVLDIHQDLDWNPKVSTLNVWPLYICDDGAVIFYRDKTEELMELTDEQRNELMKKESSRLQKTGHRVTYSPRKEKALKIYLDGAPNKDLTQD
Assay: Inhibition of human USP47 using Ub-EKL as substrate by SDS-PAGE assay

Structure (SMILES) | EC50 [nM]
COCCNC1CS(=O)(=O)c2cc(NC(=O)c3cc([N+](=O)[O-])c(Sc4c(Cl)cncc4Cl)s3)ccc21 (stereo unspecified) | 2000
CC1CS(=N)(=O)c2cc(NC(=O)c3cc([N+](=O)[O-])c(Sc4c(Cl)cncc4Cl)s3)ccc21 (stereo unspecified) | 1100
N#Cc1cc(C(=O)Nc2ccc3c(c2)S(=O)(=O)C=C3)sc1Sc1c(Cl)cncc1Cl | 5100
O=C(NC1CCS(=O)(=O)c2ccccc21)c1cc([N+](=O)[O-])c(Sc2c(Cl)cncc2Cl)s1 (stereo unspecified) | 1600
CS(=O)(=O)c1cccc(NC(=O)c2cc([N+](=O)[O-])c(Sc3c(Cl)cncc3Cl)s2)c1 | 1400
CCS(=O)(=O)c1cccc(NC(=O)c2cc([N+](=O)[O-])c(Sc3c(Cl)cncc3Cl)s2)c1 | 940
O=C(Nc1cccc(S(=O)(=O)CC2CC2)c1)c1cc([N+](=O)[O-])c(Sc2c(Cl)cncc2Cl)s1 | 1500
CS(=N)(=O)c1cccc(NC(=O)c2cc([N+](=O)[O-])c(Sc3c(Cl)cncc3Cl)s2)c1 (stereo unspecified) | 2200
CN(C)CCNC1CS(=O)(=O)c2cc(NC(=O)c3cc([N+](=O)[O-])c(Sc4c(Cl)cncc4Cl)s3)ccc21 (stereo unspecified) | 200
O=C(Nc1cccc(S(=O)(=O)C2CC2)c1)c1cc([N+](=O)[O-])c(Sc2c(Cl)cncc2Cl)s1 | 1590
O=C(Nc1ccc2c(c1)S(=O)(=O)C=C2)c1cc([N+](=O)[O-])c(Sc2c(Cl)cncc2Cl)s1 | 1330
O=C(c1cc([N+](=O)[O-])c(Sc2c(Cl)cncc2Cl)s1)N1CCS(=O)(=O)CC1 | 6400
CS(=O)(=O)c1ccccc1NC(=O)c1cc([N+](=O)[O-])c(Sc2c(Cl)cncc2Cl)s1 | 9300
CC1=CS(=O)(=O)c2cc(NC(=O)c3cc([N+](=O)[O-])c(Sc4c(Cl)cncc4Cl)s3)ccc21 | 360
CN(C)CCOc1ccc(NC(=O)c2cc([N+](=O)[O-])c(Sc3c(Cl)cncc3Cl)s2)cc1 | 450
O=C(NC1CCS(=O)(=O)CC1)c1cc([N+](=O)[O-])c(Sc2c(Cl)cncc2Cl)s1 | 3500
CC1CS(=O)(=O)c2cc(NC(=O)c3cc([N+](=O)[O-])c(Sc4c(Cl)cncc4Cl)s3)ccc21 (stereo unspecified) | 360
O=C(Nc1ccc2c(c1)S(=O)(=O)CC2)c1cc([N+](=O)[O-])c(Sc2c(Cl)cncc2Cl)s1 | 2030
CS(=O)(=O)c1ccc(NC(=O)c2cc([N+](=O)[O-])c(Sc3c(Cl)cncc3Cl)s2)cc1 | 11800
O=C(NC1CCS(=O)(=O)C2COCCC12)c1cc([N+](=O)[O-])c(Sc2c(Cl)cncc2Cl)s1 (stereo unspecified) | 4100
CS(=O)(=O)Nc1cccc(NC(=O)c2cc([N+](=O)[O-])c(Sc3c(Cl)cncc3Cl)s2)c1 | 1280

Biological target: T1, Ubiquitin carboxyl-terminal hydrolase 7
Assay: Inhibition of human USP7 using Ub-EKL as substrate

Structure (SMILES) | EC50 [nM]
O=C(Nc1ccc2c(c1)S(=O)(=O)C=C2)c1cnc(Sc2c(Cl)cncc2Cl)s1 | 2000
CS(=O)(=O)c1cccc(NC(=O)c2nnc(Sc3c(Cl)cncc3Cl)s2)c1 | 1000
Cc1c(NC(=O)c2nnc(Sc3c(Cl)cncc3Cl)s2)ccc2c1S(=O)(=O)CC2 | 2000
CC1CS(=O)(=O)c2cc(NC(=O)c3cnc(Sc4c(Cl)cncc4Cl)s3)ccc21 (stereo unspecified) | 2000
CN(C)CC(O)COc1ccc(NC(=O)c2nnc(Sc3c(Cl)cncc3Cl)s2)cc1 (stereo unspecified) | < 1000
CC1CS(=O)(=O)c2cc(NC(=O)c3nnc(Sc4c(Cl)cncc4Cl)s3)ccc21 (stereo unspecified) | 1000
